Results reported in the supplement of paper PMC10307832.

What was measured:
Experiment in all cases: relative viability (nuclei count vs DMSO), 5 days (fraction); higher = more cells survive
COR-L 105 = test system: COR-L 105
In short: (§1)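 One day after seeding in 1536-well plates, lung cancer cell lines were dosed by pin tool. Dosing was either single-drug or a fixed anchor-drug dose plus five library-drug doses (not always all listed) in √10 steps. After 5 days, nuclei were stained in one fix-and-stain step and counted on 4× images, and relative viability is the nuclei count of treated wells over that of vehicle wells, given as the median of duplicate plates.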

SK-LU-1 = test system: SK-LU-1
In short: as §1

SK-MES-1 = test system: SK-MES-1
In short: as §1

NCI-H2347 = test system: NCI-H2347
In short: as §1

LXF-289 = test system: LXF-289
In short: as §1

NCI-H1395 = test system: NCI-H1395
In short: as §1

NCI-H1755 = test system: NCI-H1755
In short: as §1

NCI-H661 = test system: NCI-H661
In short: as §1

EKVX = test system: EKVX
In short: as §1

NCI-H1437 = test system: NCI-H1437
In short: as §1

NCI-H1651 = test system: NCI-H1651
In short: as §1

NCI-H2085 = test system: NCI-H2085
In short: as §1

H3255 = test system: H3255
In short: as §1

NCI-H1793 = test system: NCI-H1793
In short: as §1

LC-2-ad = test system: LC-2-ad
In short: as §1

LK-2 = test system: LK-2
In short: as §1

CAL-12T = test system: CAL-12T
In short: as §1

PC-3 [JPC-3] = test system: PC-3 [JPC-3]
In short: as §1

NCI-H1944 = test system: NCI-H1944
In short: as §1

NCI-H2087 = test system: NCI-H2087
In short: as §1

EMC-BAC-2 = test system: EMC-BAC-2
In short: as §1

NCI-H2228 = test system: NCI-H2228
In short: as §1

NCI-H1915 = test system: NCI-H1915
In short: as §1

SMILES: O=C(O)CCCCC(CCSCc1ccccc1)SCc1ccccc1 (centres undefined) [CPI-613] + O=C(CCCCCCC(=O)Nc1ccccc1)NO [Vorinostat] (partner 1 µM)
- relative viability (COR-L 105; first compound 5 µM): 0.765
- relative viability (COR-L 105; first compound 15.81 µM): 0.675
- relative viability (COR-L 105; first compound 50 µM): 1.04
- relative viability (COR-L 105; first compound 158.11 µM): 0.375
- relative viability (COR-L 105; first compound 500 µM): 0.261
- relative viability (SK-LU-1; first compound 5 µM): 0.773
- relative viability (SK-LU-1; first compound 15.81 µM): 0.65
- relative viability (SK-LU-1; first compound 50 µM): 0.648
- relative viability (SK-LU-1; first compound 158.11 µM): 0.206
- relative viability (SK-LU-1; first compound 500 µM): 0.11
- relative viability (SK-MES-1; first compound 5 µM): 1.09
- relative viability (SK-MES-1; first compound 15.81 µM): 0.921
- relative viability (SK-MES-1; first compound 50 µM): 1.01
- relative viability (SK-MES-1; first compound 158.11 µM): 0.169
- relative viability (SK-MES-1; first compound 500 µM): 0.0799
- relative viability (NCI-H2347; first compound 5 µM): 0.513
- relative viability (NCI-H2347; first compound 15.81 µM): 0.494
- relative viability (NCI-H2347; first compound 50 µM): 0.596
- relative viability (NCI-H2347; first compound 158.11 µM): 0.387
- relative viability (NCI-H2347; first compound 500 µM): 0.235
- relative viability (LXF-289; first compound 5 µM): 0.699
- relative viability (LXF-289; first compound 15.81 µM): 0.707
- relative viability (LXF-289; first compound 50 µM): 0.722
- relative viability (LXF-289; first compound 158.11 µM): 0.483
- relative viability (LXF-289; first compound 500 µM): 0.567
- relative viability (NCI-H1395; first compound 5 µM): 0.792
- relative viability (NCI-H1395; first compound 15.81 µM): 0.613
- relative viability (NCI-H1395; first compound 50 µM): 0.871
- relative viability (NCI-H1395; first compound 158.11 µM): 0.653
- relative viability (NCI-H1395; first compound 500 µM): 0.745
- relative viability (NCI-H1755; first compound 5 µM): 0.736
- relative viability (NCI-H1755; first compound 15.81 µM): 0.707
- relative viability (NCI-H1755; first compound 50 µM): 0.675
- relative viability (NCI-H1755; first compound 158.11 µM): 0.577
- relative viability (NCI-H1755; first compound 500 µM): 0.608
- relative viability (NCI-H661; first compound 5 µM): 0.702
- relative viability (NCI-H661; first compound 15.81 µM): 0.702
- relative viability (NCI-H661; first compound 50 µM): 0.802
- relative viability (NCI-H661; first compound 158.11 µM): 0.423
- relative viability (NCI-H661; first compound 500 µM): 0.147
- relative viability (EKVX; first compound 5 µM): 0.695
- relative viability (EKVX; first compound 15.81 µM): 0.668
- relative viability (EKVX; first compound 50 µM): 0.637
- relative viability (EKVX; first compound 158.11 µM): 0.258
- relative viability (EKVX; first compound 500 µM): 0.429
- relative viability (NCI-H1437; first compound 5 µM): 0.803
- relative viability (NCI-H1437; first compound 15.81 µM): 0.637
- relative viability (NCI-H1437; first compound 50 µM): 0.689
- relative viability (NCI-H1437; first compound 158.11 µM): 0.093
- relative viability (NCI-H1437; first compound 500 µM): 0.0541
- relative viability (NCI-H1651; first compound 5 µM): 0.583
- relative viability (NCI-H1651; first compound 15.81 µM): 0.528
- relative viability (NCI-H1651; first compound 50 µM): 0.528
- relative viability (NCI-H1651; first compound 158.11 µM): 0.438
- relative viability (NCI-H1651; first compound 500 µM): 0.542
- relative viability (NCI-H2085; first compound 5 µM): 0.791
- relative viability (NCI-H2085; first compound 15.81 µM): 0.709
- relative viability (NCI-H2085; first compound 50 µM): 0.657
- relative viability (NCI-H2085; first compound 158.11 µM): 0.457
- relative viability (NCI-H2085; first compound 500 µM): 0.216
- relative viability (H3255; first compound 5 µM): 0.765
- relative viability (H3255; first compound 15.81 µM): 0.796
- relative viability (H3255; first compound 50 µM): 0.639
- relative viability (H3255; first compound 158.11 µM): 0.821
- relative viability (H3255; first compound 500 µM): 0.716
- relative viability (NCI-H1793; first compound 5 µM): 0.781
- relative viability (NCI-H1793; first compound 15.81 µM): 0.559
- relative viability (NCI-H1793; first compound 50 µM): 0.754
- relative viability (NCI-H1793; first compound 158.11 µM): 0.424
- relative viability (NCI-H1793; first compound 500 µM): 0.0086
- relative viability (LC-2-ad; first compound 5 µM): 0.624
- relative viability (LC-2-ad; first compound 15.81 µM): 0.631
- relative viability (LC-2-ad; first compound 50 µM): 0.594
- relative viability (LC-2-ad; first compound 158.11 µM): 0.0484
- relative viability (LC-2-ad; first compound 500 µM): 0.0025
- relative viability (LK-2; first compound 5 µM): 0.333
- relative viability (LK-2; first compound 15.81 µM): 0.278
- relative viability (LK-2; first compound 50 µM): 0.344
- relative viability (LK-2; first compound 158.11 µM): 0.553
- relative viability (LK-2; first compound 500 µM): 0.28
- relative viability (CAL-12T; first compound 5 µM): 0.674
- relative viability (CAL-12T; first compound 15.81 µM): 0.545
- relative viability (CAL-12T; first compound 50 µM): 0.708
- relative viability (CAL-12T; first compound 158.11 µM): 0.0538
- relative viability (CAL-12T; first compound 500 µM): 0.039
- relative viability (PC-3 [JPC-3]; first compound 5 µM): 0.83
- relative viability (PC-3 [JPC-3]; first compound 50 µM): 0.738
- relative viability (PC-3 [JPC-3]; first compound 158.11 µM): 0.623
- relative viability (PC-3 [JPC-3]; first compound 500 µM): 0.389
- relative viability (NCI-H1944; first compound 5 µM): 0.572
- relative viability (NCI-H1944; first compound 15.81 µM): 0.574
- relative viability (NCI-H1944; first compound 50 µM): 0.496
- relative viability (NCI-H1944; first compound 158.11 µM): 0.322
- relative viability (NCI-H1944; first compound 500 µM): 0.273
- relative viability (NCI-H2087; first compound 5 µM): 0.817
- relative viability (NCI-H2087; first compound 15.81 µM): 0.725
- relative viability (NCI-H2087; first compound 50 µM): 0.689
- relative viability (NCI-H2087; first compound 158.11 µM): 0.374
- relative viability (NCI-H2087; first compound 500 µM): 0.0093
- relative viability (EMC-BAC-2; first compound 5 µM): 0.499
- relative viability (EMC-BAC-2; first compound 15.81 µM): 0.339
- relative viability (EMC-BAC-2; first compound 50 µM): 0.469
- relative viability (EMC-BAC-2; first compound 158.11 µM): 0.356
- relative viability (EMC-BAC-2; first compound 500 µM): 0.0895
- relative viability (NCI-H2228; first compound 5 µM): 0.776
- relative viability (NCI-H2228; first compound 15.81 µM): 0.402
- relative viability (NCI-H2228; first compound 50 µM): 0.559
- relative viability (NCI-H2228; first compound 158.11 µM): 0.229
- relative viability (NCI-H2228; first compound 500 µM): 0.0377
- relative viability (NCI-H1915; first compound 5 µM): 0.502
- relative viability (NCI-H1915; first compound 15.81 µM): 0.54
- relative viability (NCI-H1915; first compound 50 µM): 0.488
- relative viability (NCI-H1915; first compound 158.11 µM): 0.467
- relative viability (NCI-H1915; first compound 500 µM): 0.0403
